Results as given in US12496329B2, “Methods of using and compositions including an incretin analog” (Eli Lilly and Company, priority 2021, dated 2025).
Like-named read-outs stand apart in the source and are kept apart here.

Assay: SAD study: plasma pharmacokinetics after a single SC dose
Type: in vivo
Conditions: both sexes, human
Source text: Studies are designed to evaluate the safety, tolerability, pharmacodynamics (PD) and pharmacokinetics (PK) of the GGG tri-receptor agonist (SEQ ID NO:1) in healthy individuals. The SAD study is a randomized, investigator- and participant-blind, placebo-controlled, single-dose, single-site, dose-escalation study conducted in healthy individuals (e.g., overtly healthy females or males aged 21-65 years, inclusive, with a BMI 19-40 kg/m^2 at screening).
Six dose levels of the GGG tri-receptor agonist-0.1, 0.3, 1.0, 3.0, 4.5 and 6.0 mg—are explored in the SAD study, as well as placebo (i.e., 0.0 mg). A dose escalation of the GGG tri-receptor agonist is assessed in cohorts of healthy individuals (e.g., 6 individuals receiving the GGG tri-receptor agonist and 2 individuals receiving placebo per cohort). Staggered dosing is performed for each cohort, in which a new higher dose of the GGG tri-receptor agonist is administered. All injections are administered into the SC tissue of an abdominal wall, in a right or left lower quadrant.
Blood samples are collected pre-dose and at 4 hours (hr), 10 hr, 14 hr, 24 hr (Day 1), 48 hr (Day 2), 72 hr (Day 3), 96 hr (Day 4), 120 hr ([…]), 168 hr (Day 7), 336 hr (Day 14), 672 hr (Day 28) and 1008 hr (Day 42) post-dose to determine plasma concentration of the GGG tri-receptor agonist. Plasma concentrations are used to compute PK parameters using standard non-compartmental methods in a validated software program (Phoenix WinNonlin Version 8.1).
Bioanalytical methods: plasma samples are analyzed at Q2 Solutions (Ithaca, NY). The samples are analyzed for the GGG tri-receptor agonist using a validated liquid chromatography high resolution mass spectrometry method. The lower limit of quantification is 1.00 ng/mL and the upper limit of quantification is 500.00 ng/ml. Samples above a limit of quantification are diluted and reanalyzed to yield results within the calibrated range. The intra-assay accuracy (% relative error) during validation ranges from −6.3% to 15.7%. The intra-assay precision (% relative standard deviation) during validation is ≤14.7%. The GGG tri-receptor agonist is stable for up to 96 days when stored at about-20° C. and about −70° C.
Actual sampling times are used in the calculation of all PK parameters and concentration versus time profiles.
Concentration values below the quantifiable lower limit of the assay are excluded from the calculation of PK parameters, except for those prior to the first measurable concentration, which are set to a value of 0.
A concentration average is plotted for a given sample if two thirds of the individual data at the time point have quantifiable measurements. Concentrations at sampling times exceeding ±10% of the scheduled time ware excluded from the average concentration profiles.

`CC[C@H](C)[C@H](NC(=O)[C@H](Cc1ccccc1)NC(=O)[C@H](C)NC(=O)C(C)(C)NC(=O)[C@H](CCC(N)=O)NC(=O)[C@H](C)NC(=O)[C@H](CCCCNC(=O)COCCOCCNC(=O)CC[C@H](NC(=O)CCCCCCCCCCCCCCCCCCC(=O)O)C(=O)O)NC(=O)[C@H](CCCCN)NC(=O)[C@H](CC(=O)O)NC(=O)[C@H](CC(C)C)NC(=O)[C@](C)(CC(C)C)NC(=O)[C@@H](NC(=O)[C@H](CO)NC(=O)[C@H](Cc1ccc(O)cc1)NC(=O)[C@H](CC(=O)O)NC(=O)[C@H](CO)NC(=O)[C@@H](NC(=O)[C@H](Cc1ccccc1)NC(=O)[C@@H](NC(=O)CNC(=O)[C@H](CCC(N)=O)NC(=O)C(C)(C)NC(=O)[C@@H](N)Cc1ccc(O)cc1)[C@@H](C)O)[C@@H](C)O)[C@@H](C)CC)C(=O)N[C@@H](CCC(=O)O)C(=O)N[C@@H](Cc1ccc(O)cc1)C(=O)N[C@@H](CC(C)C)C(=O)N[C@@H](CC(C)C)C(=O)N[C@@H](CCC(=O)O)C(=O)NCC(=O)NCC(=O)N1CCC[C@H]1C(=O)N[C@@H](CO)C(=O)N[C@@H](CO)C(=O)NCC(=O)N[C@@H](C)C(=O)N1CCC[C@H]1C(=O)N1CCC[C@H]1C(=O)N1CCC[C@H]1C(=O)N[C@@H](CO)C(N)=O` [GGG tri-receptor agonist, Y-Aib-QGTFTSDYSI-αMeL-LDKK((2-[2-(2-amino-ethoxy)-ethoxy]-acetyl)-(γGlu)-CO-(CH2)18-CO2H)AQ-Aib-AFIEYLLEGGPSSGAPPPS-NH2] showed an AUC(0-inf) (0.1 mg single SC dose) of 3750 ng·h/mL, a CL/F (0.1 mg single SC dose) of 0.445 mL/min and a Cmax (0.1 mg single SC dose) of 11 ng/mL. For the same compound, the Tmax (0.1 mg single SC dose) was 72 h, the AUC(0-inf) (0.3 mg single SC dose) was 10300 ng·h/mL and the CL/F (0.3 mg single SC dose) was 0.485 mL/min. The Cmax (0.3 mg single SC dose) was 44.8 ng/mL, the Tmax (0.3 mg single SC dose) was 72.2 h and the AUC(0-inf) (1.0 mg single SC dose) was 28300 ng·h/mL. The CL/F (1.0 mg single SC dose) was 0.59 mL/min, the Cmax (1.0 mg single SC dose) was 110 ng/mL and the Tmax (1.0 mg single SC dose) was 48 h. The AUC(0-inf) (3.0 mg single SC dose) was 69100 ng·h/mL, the CL/F (3.0 mg single SC dose) was 0.723 mL/min and the Cmax (3.0 mg single SC dose) was 251 ng/mL. It also gave a Tmax (3.0 mg single SC dose) of 14 h, an AUC(0-inf) (4.5 mg single SC dose) of 130000 ng·h/mL and a CL/F (4.5 mg single SC dose) of 0.577 mL/min. It also gave a Cmax (4.5 mg single SC dose) of 589 ng/mL, a Tmax (4.5 mg single SC dose) of 12 h and an AUC(0-inf) (6.0 mg single SC dose) of 150000 ng·h/mL. For the same compound, the CL/F (6.0 mg single SC dose) was 0.668 mL/min, the Cmax (6.0 mg single SC dose) was 635 ng/mL and the Tmax (6.0 mg single SC dose) was 24 h. The half-life (sc, 0.1 mg, 0.1 mg single SC dose, read-out: t½ (converted)) was 165 h, the half-life (sc, 0.3 mg, 0.3 mg single SC dose, read-out: t½ (converted)) was 139 h and the half-life (sc, 1 mg, 1.0 mg single SC dose, read-out: t½ (converted)) was 134 h. The half-life (sc, 3 mg, 3.0 mg single SC dose, read-out: t½ (converted)) was 134 h, the half-life (sc, 4.5 mg, 4.5 mg single SC dose, read-out: t½ (converted)) was 163 h and the half-life (sc, 6 mg, 6.0 mg single SC dose, read-out: t½ (converted)) was 149 h. For the same compound, the half-life (subcutaneous, single dose, read-out: mean terminal t½) was 120 to 168 h.
